Laboratory results: ChEMBL document CHEMBL5463725, “Data for DCP probe BAY-277” (2023)
Active and inactive are the calls of the source. The calls are words filed in the database; no cut-off is given here.

Legend:
[1] = target: T1, Methionine aminopeptidase 2 (Homo sapiens, UniProt P50579); test: METAP2 biochemical assay (human)
[2] = target: T1, Methionine aminopeptidase 2; test: Degradation in HT1080 cells (CE) (Capillary electrophoresis (CE)); format: functional, cell-based; details: ht-1080
[3] = target: Hepatocyte growth factor receptor (Homo sapiens) (UniProt P08581); test: Inhibition of Met(h) at 10.0 µM in the Eurofins Kinase panel; details: Compound concentration 10.0 uM
Sequence of Hepatocyte growth factor receptor (Homo sapiens) (P08581 whole entry): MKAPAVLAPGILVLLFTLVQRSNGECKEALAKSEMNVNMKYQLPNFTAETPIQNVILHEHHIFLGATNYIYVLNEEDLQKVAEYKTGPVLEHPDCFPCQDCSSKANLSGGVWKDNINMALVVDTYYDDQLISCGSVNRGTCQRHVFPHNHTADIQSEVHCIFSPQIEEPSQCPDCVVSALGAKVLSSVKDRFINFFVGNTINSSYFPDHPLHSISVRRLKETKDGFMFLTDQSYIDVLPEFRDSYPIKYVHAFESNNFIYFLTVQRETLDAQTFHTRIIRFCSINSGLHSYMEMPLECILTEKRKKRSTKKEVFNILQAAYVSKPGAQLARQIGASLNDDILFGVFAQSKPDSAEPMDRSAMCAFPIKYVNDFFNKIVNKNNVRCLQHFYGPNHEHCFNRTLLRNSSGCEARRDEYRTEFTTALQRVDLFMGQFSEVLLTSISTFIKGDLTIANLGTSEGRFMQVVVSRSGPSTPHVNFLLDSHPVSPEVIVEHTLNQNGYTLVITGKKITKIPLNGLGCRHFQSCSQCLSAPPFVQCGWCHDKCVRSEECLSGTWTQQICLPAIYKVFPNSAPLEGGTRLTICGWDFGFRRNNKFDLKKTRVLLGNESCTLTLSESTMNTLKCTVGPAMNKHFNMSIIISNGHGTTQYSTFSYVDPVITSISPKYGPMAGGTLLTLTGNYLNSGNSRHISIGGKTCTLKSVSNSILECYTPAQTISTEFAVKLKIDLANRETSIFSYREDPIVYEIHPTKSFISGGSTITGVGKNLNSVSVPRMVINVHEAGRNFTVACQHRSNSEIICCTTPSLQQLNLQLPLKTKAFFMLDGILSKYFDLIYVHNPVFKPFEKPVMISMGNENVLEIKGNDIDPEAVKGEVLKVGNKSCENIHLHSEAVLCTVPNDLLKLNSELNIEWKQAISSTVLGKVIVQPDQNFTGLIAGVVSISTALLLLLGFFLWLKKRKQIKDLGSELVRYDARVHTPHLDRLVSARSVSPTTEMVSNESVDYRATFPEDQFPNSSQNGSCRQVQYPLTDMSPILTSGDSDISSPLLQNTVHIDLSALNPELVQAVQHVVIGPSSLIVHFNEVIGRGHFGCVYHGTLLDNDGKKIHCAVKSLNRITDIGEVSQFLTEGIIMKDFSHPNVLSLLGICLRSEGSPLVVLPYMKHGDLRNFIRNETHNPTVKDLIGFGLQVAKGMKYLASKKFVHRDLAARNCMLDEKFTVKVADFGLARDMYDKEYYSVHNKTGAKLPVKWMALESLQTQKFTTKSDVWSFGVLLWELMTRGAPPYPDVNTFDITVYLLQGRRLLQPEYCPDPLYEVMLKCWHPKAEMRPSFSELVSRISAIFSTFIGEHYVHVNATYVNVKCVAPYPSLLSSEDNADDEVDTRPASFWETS

[4] = target: Serine/threonine-protein kinase pim-2 (Homo sapiens) (UniProt Q9P1W9); test: Inhibition of Pim-2(h) at 10.0 µM in the Eurofins Kinase panel; details: Compound concentration 10.0 uM
Sequence of Serine/threonine-protein kinase pim-2 (Homo sapiens) (Q9P1W9 whole entry, looked up): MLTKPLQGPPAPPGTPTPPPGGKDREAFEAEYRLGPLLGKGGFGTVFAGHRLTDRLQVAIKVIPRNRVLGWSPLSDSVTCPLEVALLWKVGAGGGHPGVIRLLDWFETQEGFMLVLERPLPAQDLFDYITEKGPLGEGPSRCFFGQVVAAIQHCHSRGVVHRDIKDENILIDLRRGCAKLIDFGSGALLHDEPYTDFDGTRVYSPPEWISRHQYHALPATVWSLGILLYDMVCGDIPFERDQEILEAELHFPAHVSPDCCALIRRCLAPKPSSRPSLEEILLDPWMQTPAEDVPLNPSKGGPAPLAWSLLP

[5] = target: Death-associated protein kinase 3 (Homo sapiens) (UniProt O43293); test: Inhibition of ZIPK(h) at 10.0 µM in the Eurofins Kinase panel; details: Compound concentration 10.0 uM
[6] = target: 3',5'-cyclic-AMP phosphodiesterase 4D (Homo sapiens) (UniProt Q08499); test: Inhibition of Phosphodiesterase PDE4D2 at 10.0 µM in the Eurofins Panlabs Safety Screen; details: Compound concentration 10.0 uM
[7] = target: T2, Alpha-2B adrenergic receptor (Homo sapiens) (UniProt P18089); test: Inhibition of Adrenergic alpha2B at 10.0 µM in the Eurofins Panlabs Safety Screen; details: Compound concentration 10.0 uM
T2 sequence (whole entry): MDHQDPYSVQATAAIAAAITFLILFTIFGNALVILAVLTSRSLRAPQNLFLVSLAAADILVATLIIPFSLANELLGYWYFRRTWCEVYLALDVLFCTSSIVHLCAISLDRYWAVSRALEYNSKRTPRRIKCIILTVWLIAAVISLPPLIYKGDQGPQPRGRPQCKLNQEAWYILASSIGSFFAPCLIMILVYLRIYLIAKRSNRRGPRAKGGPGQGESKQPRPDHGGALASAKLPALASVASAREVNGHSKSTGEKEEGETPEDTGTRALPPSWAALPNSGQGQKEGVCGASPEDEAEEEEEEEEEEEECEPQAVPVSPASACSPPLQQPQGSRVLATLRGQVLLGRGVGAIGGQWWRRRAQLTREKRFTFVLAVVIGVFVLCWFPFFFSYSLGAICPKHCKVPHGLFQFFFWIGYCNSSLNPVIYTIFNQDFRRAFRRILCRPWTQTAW

[8] = target: Glutamate receptor 2 (Homo sapiens) (UniProt P42262); test: Inhibition of Glutamate, AMPA at 10.0 µM in the Eurofins Panlabs Safety Screen; details: Rattus norvegicus; Compound concentration 10.0 uM
[9] = target: Glutamate receptor ionotropic, kainate 2 (Homo sapiens) (UniProt Q13002); test: Inhibition of Glutamate, Kainate at 10.0 µM in the Eurofins Panlabs Safety Screen; details: Rattus norvegicus; Compound concentration 10.0 uM
[10] = target: Glutamate NMDA receptor (Rattus norvegicus) (UniProt P35439+Q00959+Q00960+Q00961+Q62645+Q8VHN2+Q9R1M7); test: Inhibition of Glutamate, NMDA, Agonism at 10.0 µM in the Eurofins Panlabs Safety Screen; format: protein-complex assay; details: Compound concentration 10.0 uM
[11] = target: Neuronal acetylcholine receptor; alpha3/beta4 (Homo sapiens) (UniProt P30926+P32297); test: Inhibition of Nicotinic Acetylcholine alpha3beta4 at 10.0 µM in the Eurofins Panlabs Safety Screen; format: protein-complex assay; details: Compound concentration 10.0 uM
[12] = target: Delta-type opioid receptor (Homo sapiens) (UniProt P41143); test: Inhibition of Opiate delta1 (OP1, DOP) at 10.0 µM in the Eurofins Panlabs Safety Screen; details: Compound concentration 10.0 uM
Sequence of Delta-type opioid receptor (Homo sapiens) (P41143 whole entry): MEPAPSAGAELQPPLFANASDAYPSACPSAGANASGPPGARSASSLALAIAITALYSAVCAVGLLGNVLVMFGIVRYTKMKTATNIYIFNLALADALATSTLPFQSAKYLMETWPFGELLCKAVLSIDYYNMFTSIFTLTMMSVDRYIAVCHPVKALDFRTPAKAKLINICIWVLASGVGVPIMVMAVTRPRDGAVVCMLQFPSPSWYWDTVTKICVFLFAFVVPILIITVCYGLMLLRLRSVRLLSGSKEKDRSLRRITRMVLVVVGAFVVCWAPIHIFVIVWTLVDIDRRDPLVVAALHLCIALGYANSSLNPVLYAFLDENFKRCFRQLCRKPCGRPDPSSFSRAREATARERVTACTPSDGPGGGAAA

[13] = target: T3, 5-hydroxytryptamine receptor 2C (Homo sapiens) (UniProt P28335); test: Inhibition of Serotonin (5-Hydroxytryptamine) 5-HT2C at 10.0 µM in the Eurofins Panlabs Safety Screen; details: Compound concentration 10.0 uM
T3 sequence (whole entry): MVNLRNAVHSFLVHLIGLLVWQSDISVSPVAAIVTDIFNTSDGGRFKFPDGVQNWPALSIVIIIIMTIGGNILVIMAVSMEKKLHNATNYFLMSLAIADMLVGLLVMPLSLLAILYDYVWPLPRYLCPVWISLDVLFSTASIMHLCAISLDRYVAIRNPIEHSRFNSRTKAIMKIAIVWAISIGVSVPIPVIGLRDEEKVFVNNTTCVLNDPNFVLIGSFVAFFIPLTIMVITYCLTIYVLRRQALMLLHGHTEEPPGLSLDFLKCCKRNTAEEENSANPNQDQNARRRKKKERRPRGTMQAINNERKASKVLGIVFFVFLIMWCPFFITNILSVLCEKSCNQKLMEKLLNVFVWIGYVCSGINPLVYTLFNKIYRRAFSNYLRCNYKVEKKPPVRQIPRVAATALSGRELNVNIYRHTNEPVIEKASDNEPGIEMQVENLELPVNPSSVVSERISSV

[14] = target: Sodium-dependent noradrenaline transporter (Homo sapiens) (UniProt P23975); test: Inhibition of Transporter, Norepinephrine (NET) at 10.0 µM in the Eurofins Panlabs Safety Screen; details: Compound concentration 10.0 uM
[15] = target: PI3-kinase p110-delta/p85-alpha (Homo sapiens) (UniProt P27986+O00329); test: Inhibition of PI3 Kinase (p110d/p85a)(h) at 10.0 µM in the Eurofins Kinase panel; format: protein-complex assay; details: Compound concentration 10.0 uM
[16] = target: Tyrosine-protein kinase Fgr (Homo sapiens) (UniProt P09769); test: Inhibition of Fgr(h) at 10.0 µM in the Eurofins Kinase panel; details: Compound concentration 10.0 uM
[17] = target: D(4) dopamine receptor (Homo sapiens) (UniProt P21917); details: Compound concentration 10.0 uM
Sequence of D(4) dopamine receptor (Homo sapiens) (P21917 whole entry): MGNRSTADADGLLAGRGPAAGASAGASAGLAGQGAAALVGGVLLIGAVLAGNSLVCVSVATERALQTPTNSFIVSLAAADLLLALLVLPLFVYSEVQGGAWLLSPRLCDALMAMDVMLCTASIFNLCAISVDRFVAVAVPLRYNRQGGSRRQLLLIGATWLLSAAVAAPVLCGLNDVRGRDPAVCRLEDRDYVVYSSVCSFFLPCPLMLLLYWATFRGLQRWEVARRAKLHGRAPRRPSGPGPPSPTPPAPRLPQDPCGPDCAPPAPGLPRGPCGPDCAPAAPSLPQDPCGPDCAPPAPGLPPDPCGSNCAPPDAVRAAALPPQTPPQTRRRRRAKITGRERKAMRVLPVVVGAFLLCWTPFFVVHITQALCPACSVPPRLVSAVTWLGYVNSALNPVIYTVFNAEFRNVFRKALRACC

[18] = target: Mu-type opioid receptor (Homo sapiens) (UniProt P35372); details: Compound concentration 10.0 uM
Sequence of Mu-type opioid receptor (Homo sapiens) (P35372 whole entry): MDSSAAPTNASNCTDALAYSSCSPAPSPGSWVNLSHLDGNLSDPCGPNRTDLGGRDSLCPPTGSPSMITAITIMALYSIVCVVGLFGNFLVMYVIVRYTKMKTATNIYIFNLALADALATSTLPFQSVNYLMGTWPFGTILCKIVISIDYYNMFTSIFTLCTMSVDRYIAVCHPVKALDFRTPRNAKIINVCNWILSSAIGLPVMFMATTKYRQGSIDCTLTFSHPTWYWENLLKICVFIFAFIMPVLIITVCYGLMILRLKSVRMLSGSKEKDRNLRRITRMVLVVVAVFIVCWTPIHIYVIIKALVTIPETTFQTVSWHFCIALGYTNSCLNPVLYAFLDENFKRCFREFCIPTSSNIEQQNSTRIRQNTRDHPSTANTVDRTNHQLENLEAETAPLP

Histamine H3 receptor = Histamine H3 receptor (Homo sapiens, UniProt Q9Y5N1); details: Compound concentration 10.0 uM
Sequence of Histamine H3 receptor (Q9Y5N1 whole entry): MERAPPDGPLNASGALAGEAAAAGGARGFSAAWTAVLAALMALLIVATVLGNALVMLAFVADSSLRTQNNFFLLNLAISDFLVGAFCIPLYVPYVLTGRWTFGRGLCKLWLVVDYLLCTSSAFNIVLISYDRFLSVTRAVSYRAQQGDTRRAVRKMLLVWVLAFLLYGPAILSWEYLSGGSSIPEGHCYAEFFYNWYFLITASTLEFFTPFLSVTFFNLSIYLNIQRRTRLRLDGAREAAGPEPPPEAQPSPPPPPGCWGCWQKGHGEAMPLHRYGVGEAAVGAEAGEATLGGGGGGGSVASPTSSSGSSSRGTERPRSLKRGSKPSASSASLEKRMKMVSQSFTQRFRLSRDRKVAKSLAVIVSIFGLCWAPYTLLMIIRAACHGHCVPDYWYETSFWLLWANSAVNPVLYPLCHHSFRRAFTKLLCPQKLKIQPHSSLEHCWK

[19] = target: Histamine H4 receptor (Homo sapiens) (UniProt Q9H3N8); details: Compound concentration 10.0 uM
Sequence of Histamine H4 receptor (Homo sapiens) (Q9H3N8 whole entry): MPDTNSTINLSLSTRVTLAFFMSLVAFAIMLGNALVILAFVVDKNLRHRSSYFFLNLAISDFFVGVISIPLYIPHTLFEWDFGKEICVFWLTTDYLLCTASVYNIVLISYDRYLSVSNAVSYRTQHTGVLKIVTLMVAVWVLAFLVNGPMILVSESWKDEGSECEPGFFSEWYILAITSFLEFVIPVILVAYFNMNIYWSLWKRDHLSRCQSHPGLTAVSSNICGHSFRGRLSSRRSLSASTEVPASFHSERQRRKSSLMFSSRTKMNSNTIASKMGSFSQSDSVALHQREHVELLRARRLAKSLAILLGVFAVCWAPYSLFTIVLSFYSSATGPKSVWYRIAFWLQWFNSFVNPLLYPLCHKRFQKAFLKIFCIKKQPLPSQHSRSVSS

[20] = target: T4, Muscarinic acetylcholine receptor M1 (Homo sapiens) (UniProt P11229); details: Compound concentration 10.0 uM
T4 sequence (whole entry): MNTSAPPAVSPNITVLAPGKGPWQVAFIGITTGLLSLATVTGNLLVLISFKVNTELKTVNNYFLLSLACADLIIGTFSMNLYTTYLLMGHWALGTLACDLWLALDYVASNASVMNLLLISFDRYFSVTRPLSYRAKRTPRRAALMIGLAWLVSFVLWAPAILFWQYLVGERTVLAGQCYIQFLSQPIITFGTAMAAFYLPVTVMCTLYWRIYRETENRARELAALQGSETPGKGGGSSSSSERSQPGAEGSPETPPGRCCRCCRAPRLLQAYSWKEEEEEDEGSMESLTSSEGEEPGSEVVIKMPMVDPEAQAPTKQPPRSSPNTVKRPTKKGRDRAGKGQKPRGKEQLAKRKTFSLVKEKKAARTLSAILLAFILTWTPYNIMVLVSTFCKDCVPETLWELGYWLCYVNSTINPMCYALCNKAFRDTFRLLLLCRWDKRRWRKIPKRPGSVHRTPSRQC

[21] = target: Muscarinic acetylcholine receptor M3 (Homo sapiens, UniProt P20309); details: Compound concentration 10.0 uM
Sequence of Muscarinic acetylcholine receptor M3 (P20309 whole entry, looked up): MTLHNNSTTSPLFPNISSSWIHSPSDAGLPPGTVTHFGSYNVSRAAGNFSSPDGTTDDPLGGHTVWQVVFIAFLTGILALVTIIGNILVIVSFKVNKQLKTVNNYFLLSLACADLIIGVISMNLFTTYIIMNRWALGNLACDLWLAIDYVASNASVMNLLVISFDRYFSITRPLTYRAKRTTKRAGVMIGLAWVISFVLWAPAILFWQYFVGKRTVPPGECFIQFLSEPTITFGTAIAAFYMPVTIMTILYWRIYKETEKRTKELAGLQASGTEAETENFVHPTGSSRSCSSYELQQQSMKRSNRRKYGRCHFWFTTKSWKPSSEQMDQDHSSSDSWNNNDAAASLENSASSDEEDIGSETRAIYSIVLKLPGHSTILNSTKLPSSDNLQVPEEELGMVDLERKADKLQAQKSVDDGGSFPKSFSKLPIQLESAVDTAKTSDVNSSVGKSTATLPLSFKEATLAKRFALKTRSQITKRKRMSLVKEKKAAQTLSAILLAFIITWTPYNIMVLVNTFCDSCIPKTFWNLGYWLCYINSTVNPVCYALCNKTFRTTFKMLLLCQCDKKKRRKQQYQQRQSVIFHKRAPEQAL

[22] = target: Sigma intracellular receptor 2 (Homo sapiens, UniProt Q5BJF2); details: Compound concentration 10.0 uM
Sequence of Sigma intracellular receptor 2 (Q5BJF2 whole entry): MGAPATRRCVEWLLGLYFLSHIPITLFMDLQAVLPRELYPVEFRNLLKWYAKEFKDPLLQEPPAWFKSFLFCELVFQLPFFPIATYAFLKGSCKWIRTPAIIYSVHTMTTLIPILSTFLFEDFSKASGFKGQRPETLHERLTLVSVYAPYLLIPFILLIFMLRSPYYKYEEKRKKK

T1 sequence (P50579 whole entry): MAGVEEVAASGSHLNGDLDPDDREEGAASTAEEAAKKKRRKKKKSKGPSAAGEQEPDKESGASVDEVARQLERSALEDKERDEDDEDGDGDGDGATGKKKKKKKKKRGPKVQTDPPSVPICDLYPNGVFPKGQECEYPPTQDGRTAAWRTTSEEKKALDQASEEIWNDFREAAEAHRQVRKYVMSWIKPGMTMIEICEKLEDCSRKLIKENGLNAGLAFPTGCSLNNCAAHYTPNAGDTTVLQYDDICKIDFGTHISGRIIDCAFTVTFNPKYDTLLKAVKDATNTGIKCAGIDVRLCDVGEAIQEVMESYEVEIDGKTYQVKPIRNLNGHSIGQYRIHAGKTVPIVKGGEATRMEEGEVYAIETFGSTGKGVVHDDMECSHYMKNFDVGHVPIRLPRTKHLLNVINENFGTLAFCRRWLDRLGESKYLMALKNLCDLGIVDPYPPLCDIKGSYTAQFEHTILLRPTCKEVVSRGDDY

Row | Structure (SMILES) | IC50 [1] | DC50 [2] | inhibition [3] [%] | inhibition [4] [%] | inhibition [5] [%] | inhibition [6] [%] | inhibition [7] [%] | inhibition [8] [%] | inhibition [9] [%] | inhibition [10] [%] | inhibition [11] [%] | inhibition [12] [%] | inhibition [13] [%] | inhibition [14] [%] | inhibition [17] [%] | inhibition [18] [%] | inhibition (Histamine H3 receptor) [%] | inhibition [19] [%] | inhibition [20] [%] | inhibition [21] [%] | other results
1 | O=C1NCCCC1N1Cc2cc(C3CCN(C(=O)CCCCCN4CCC(c5ccc(Oc6nn7cnnc7c7c6CCCC7)cc5)CC4)CC3)ccc2C1=O (centres undefined) | 5.7 nM | > 1000 nM (not active) | 16.9 | 10.6 | 15.9 | 18 | 8 | 3 | 1 | 0 | 6 | 7 | 2 | 15 | 19.1 | 13.8 | 91.5 | -3.44 | 60.4 | 51.5 | inhibition [15]: 11.6%; inhibition [16]: 10.1%; inhibition [22]: 76.4%
2 | O=C1CCC(N2Cc3cc(C4CCN(C(=O)CCCCCN5CCC(c6ccc(Oc7nn8cnnc8c8c7CCCC8)cc6)CC5)CC4)ccc3C2=O)C(=O)N1 (centres undefined) | 5.8 nM (active) | 8.93 nM (active) | 22.7 | 15.4 | 11.7 | 10 | 19 | 0 | -2 | 21 | 24 | 0 | 14 | 28 | 14.3 | 16.3 | 100 | -8.84 | 71.3 | 55 | inhibition [22]: 75.9%
